The target in one assay is T1, IG-PARP-7 (I631G PARP-7) (Homo sapiens, UniProt Q7Z3E1, I631G).
T1 construct: expressed in transfected cells; host or cells: HEK 293T (lysate)
Nature of the assay: Labeling by orthogonal NAD+ analogs in HEK 293T lysates expressing GFP-IG-PARP-7 (click with biotin-azide, Streptavidin-HRP). The format is biochemical. To be noted: HEK 293 T cell lysates, 100 µM NAD+ analog. The source says:
Identifying the protein targets of PARP-7 is a critical first step toward unraveling its function in cells. In previous work we have developed an engineered enzyme—modified substrate strategy for identifying relevant targets of individual PARP family members ([Carter-O'Connell et al., 2014]; [Carter-O'Connell et al., 2016]; [Carter-O'Connell and Cohen, 2015]; [Carter-O'Connell et al., 2018]). This chemical genetic (CG) method uses engineered PARPs and an orthogonal NAD^+ analogue that contains a clickable handle (e.g. an alkyne) that is located at the N-6 position of the adenine ring (5-Bn-6-a-NAD^+). […] Importantly, 5-Bn-6-a-NAD^+ is not used by wild-type (WT) PARPs and in this way is orthogonal to native NAD^+. […] We therefore sought a new orthogonal NAD^+ analogue that would serve as an efficient substrate for floor position engineered PARP-7, I631G PARP-7 (IG-PARP-7) (Figure 1a).
Figure 1. A chemical genetic strategy for identifying the direct MARylation targets of PARP-7. (a) Schematic of chemical genetic approach for identifying direct targets of PARP-7. (b) Crystal structure of human PARP1 bound to the non-hydrolyzable NAD^+ analog benzamide adenine dinucleotide (BAD). PDB: 6bhv. […] Following copper-catalyzed click chemistry with biotin-azide, proteins were resolved by SDS-PAGE and biotinylated proteins were detected by Western blot detection using Streptavidin-HRP. […]

The next assay addresses T2, PARP8FL (Homo sapiens, UniProt Q8N3A8).
T2 sequence (Q8N3A8 1-854): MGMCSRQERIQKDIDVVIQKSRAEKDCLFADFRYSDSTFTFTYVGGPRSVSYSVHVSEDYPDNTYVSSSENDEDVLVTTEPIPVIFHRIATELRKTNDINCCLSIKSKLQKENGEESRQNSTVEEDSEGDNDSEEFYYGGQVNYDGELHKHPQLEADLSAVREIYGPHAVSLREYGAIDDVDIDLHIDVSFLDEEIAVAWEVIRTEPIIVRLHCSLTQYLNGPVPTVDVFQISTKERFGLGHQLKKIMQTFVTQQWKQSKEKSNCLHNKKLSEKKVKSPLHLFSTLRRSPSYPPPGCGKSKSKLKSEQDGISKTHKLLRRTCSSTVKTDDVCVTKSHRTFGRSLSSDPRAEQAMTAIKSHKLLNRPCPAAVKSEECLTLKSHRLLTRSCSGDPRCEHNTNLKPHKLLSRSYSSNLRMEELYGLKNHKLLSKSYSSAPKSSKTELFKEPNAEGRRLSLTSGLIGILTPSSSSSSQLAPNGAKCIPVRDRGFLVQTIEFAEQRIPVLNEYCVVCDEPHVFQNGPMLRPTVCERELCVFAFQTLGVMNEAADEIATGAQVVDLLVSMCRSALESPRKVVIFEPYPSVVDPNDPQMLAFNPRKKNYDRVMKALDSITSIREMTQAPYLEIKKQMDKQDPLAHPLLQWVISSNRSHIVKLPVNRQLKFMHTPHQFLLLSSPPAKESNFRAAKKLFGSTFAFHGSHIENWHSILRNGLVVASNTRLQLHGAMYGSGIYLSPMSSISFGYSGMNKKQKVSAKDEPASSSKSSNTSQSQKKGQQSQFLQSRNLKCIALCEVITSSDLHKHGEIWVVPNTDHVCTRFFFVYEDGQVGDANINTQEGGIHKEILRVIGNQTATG
Put plainly: ADP-ribosylation plate assay, PARP8FL.

Data on two compounds can be found in publication PMC7880690, “Chemical genetics and proteome-wide site mapping reveal cysteine MARylation by PARP-7 on immune-relevant protein targets” (eLife, 2021).

T1 sequence (Q7Z3E1 whole entry I631G): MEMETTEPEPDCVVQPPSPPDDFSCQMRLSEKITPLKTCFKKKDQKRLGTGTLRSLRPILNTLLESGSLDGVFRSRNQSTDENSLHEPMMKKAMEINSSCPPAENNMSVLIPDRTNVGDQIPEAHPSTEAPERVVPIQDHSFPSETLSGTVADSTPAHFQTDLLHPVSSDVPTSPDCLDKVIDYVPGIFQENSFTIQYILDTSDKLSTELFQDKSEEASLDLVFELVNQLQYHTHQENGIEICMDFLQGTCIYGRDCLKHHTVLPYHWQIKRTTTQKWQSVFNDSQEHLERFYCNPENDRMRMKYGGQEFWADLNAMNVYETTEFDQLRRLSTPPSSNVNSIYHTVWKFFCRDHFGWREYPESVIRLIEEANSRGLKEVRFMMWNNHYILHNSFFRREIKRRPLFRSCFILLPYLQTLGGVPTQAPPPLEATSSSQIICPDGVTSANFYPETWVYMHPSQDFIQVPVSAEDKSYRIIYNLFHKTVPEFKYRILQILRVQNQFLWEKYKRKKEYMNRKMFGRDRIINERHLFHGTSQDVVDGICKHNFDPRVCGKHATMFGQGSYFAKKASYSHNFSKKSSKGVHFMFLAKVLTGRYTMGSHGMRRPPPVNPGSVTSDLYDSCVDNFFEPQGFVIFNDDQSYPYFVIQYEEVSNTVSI

Turning to `C#Cc1nc(N)c2ncn(C3OC(COP(=O)(O)OP(=O)([O-])OCC4OC([n+]5cc(Cc6ccccc6)cc(C(N)=O)c5)C(O)C4O)C(O)C3O)c2n1` (centres unmarked) [5-Bn-2-e-NAD^+, 5-benzyl-2-ethynyl-NAD^+], on IG-PARP-7 (I631G PARP-7), the “substrate for floor position engineered PARP-7 (IG-PARP-7)” value is given as “much better substrate”. On to `N#Cc1ccc(N2CCN(C(=O)c3cc(Cc4n[nH]c(=O)c5ccccc45)ccc3F)CC2)nc1` [Phthal01, 6-(4-(2-fluoro-5-((4-oxo-3,4-dihydrophthalazin-1-yl)methyl)benzoyl)piperazin-1-yl)nicotinonitrile], for which the IC50 at PARP8FL was 4.7 ± 1 µM.

One may read the IC50 as the concentration at which inhibition is half-maximal. Read a high IC50 as lower potency.
